Test [1] is described as follows: Antiproliferative activity against human MCF-7TN-R cells assessed as decrease in Ki-67 staining after 48 hrs by immunofluorescence staining. In kind it is functional. On the set-up: scale not given: the % may be the effect or the level left.
A further test has as its system MDA-MB-231. Description: Antiproliferative activity against human MDA-MB-231 cells assessed as decrease in Ki-67 staining after 48 hrs by immunofluorescence staining. Format: functional. On the set-up: scale not given: the % may be the effect or the level left.
The species named for test [2] is Homo sapiens. Description: Potentiation of etoposide-induced antiproliferative activity against human MCF-7TN-R cells after 24 hrs by MTT assay. Format: functional, cell-based.
The species named for test [3] is Homo sapiens. Description: Potentiation of doxorubicin-induced antiproliferative activity against human MCF-7TN-R cells after 24 hrs by MTT assay. Format: functional, cell-based.
The next test deals with MDA-MB-468. Kind of test: Antiproliferative activity against human MDA-MB-468 cells assessed as decrease in Ki-67 staining after 48 hrs by immunofluorescence staining. In kind it is functional. On the set-up: scale not given: the % may be the effect or the level left.
For test [4], the species on record is Homo sapiens. Kind of test: Induction of apoptosis in human MCF-7TN-R cells assessed as decrease in viable cells after 48 hrs by DAPI staining method relative to control. Format: functional, cell-based.

Active and inactive are the calls of the source. No cut-off for these calls is given here.

With `CCCCCCCCCCCCCCNC(=O)[C@H](CO)/N=C/c1ccccc1`, the results for the Activity (in test [1]; with MDA-MB-231; in the test on MDA-MB-468) were 19.28%, 74.6% and 25.19%, respectively. For the same compound, the outcome in the test filed under Homo sapiens [2], in the test filed under Homo sapiens [3] and in the test listed under Homo sapiens [4] was Active.

Consider `CCCCCCCCCCCCC/C=C/[C@@H](O)[C@H](CO)NC(=O)CCCCCCC`, for which the values for the Activity (in test [1]; in the test on MDA-MB-231; with MDA-MB-468) were 17.19%, 46.6% and 29.08%, respectively. The outcome in the test filed under Homo sapiens [2], in the test listed under Homo sapiens [3] and in the test filed under Homo sapiens [4] was Active.

(Values after ChEMBL document CHEMBL2010775, “Anti-proliferative effects of the novel ceramide analog (S)-2-(benzylideneamino)-3-hydroxy-N-tetrade-cylpropanamide in chemoresistant cancer” (2012).)
